Columns and labels:
Format in all cases: in vivo
Design in all cases: scale not given here
Amaranthus viridis L. [1] = assay: Herbicidal effects in upland field soil treatment (Test Example 2); conditions: 1000 g active ingredient per hectare, 21st day after treatment, criteria of Table 138
Procedure, shortened: (§1)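 Pre-emergence test: seeds sown in upland soil, then soil surface sprayed with diluted wettable powder at 1000 g active ingredient per hectare (1000 liters per hectare). Greenhouse growth; herbicidal effect scored on day 21 against set criteria.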

[2] = test system: Abutilon theophrasti medicus; assay: as above; conditions: 1000 g active ingredient per hectare, 21st day after treatment, criteria of Table 138
Procedure, shortened: as §1

Amaranthus viridis L. [3] = assay: Herbicidal effects in upland field foliar treatment (Test Example 3); conditions: criteria of Table 138; for herbicidal effects on Amaranthus viridis L.: 1000 g of the active ingredient per hectare, 14th day after the treatment, wettable powder; for herbicidal effect (index) on Amaranthus viridis L.: 1000 g active ingredient per hectare, 14th day after treatment
Procedure, shortened: (§2)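 Plants grown two weeks from seed in upland soil in a greenhouse, then sprayed overall with water-diluted wettable powder at 1000 L/ha delivering 1000 g active ingredient/ha. Herbicidal effect scored by rating criteria 14 days after treatment.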

[4] = test system: Echinochloa crus-galli (L.) P. Beauv. var. crus-galli; assay: as above; conditions: criteria of Table 138; for herbicidal effects on Echinochloa crus-galli (L.) P. Beauv. var. crus-galli: 1000 g of the active ingredient per hectare, 14th day after the treatment, wettable powder; for herbicidal effect (index) on Echinochloa crus-galli (L.) P. Beauv. var. crus-galli: 1000 g active ingredient per hectare, 14th day after treatment
Procedure, shortened: as §2

[5] = test system: Abutilon theophrasti medicus; assay: as above; conditions: criteria of Table 138; for herbicidal effects on Abutilon theophrasti medicus: 1000 g of the active ingredient per hectare, 14th day after the treatment, wettable powder; for herbicidal effect (index) on Abutilon theophrasti medicus: 1000 g active ingredient per hectare, 14th day after treatment
Procedure, shortened: as §2

[6] = test system: Scirpus juncoides Roxb. var. ohwianus. T. Koyama; assay: Herbicidal effects in paddy field soil treatment (Test Example 1); conditions: for Herbicidal effects index, Scirpus juncoides Roxb. var. ohwianus. T. Koyama: paddy field soil treatment, 1000 g of the active ingredient per hectare, wettable powder added dropwise on water surface, 21st day after treatment; for herbicidal effect (index) on Scirpus juncoides Roxb. var. ohwianus. T. Koyama: paddy field soil treatment (Test Example 1), criteria of Table 138
Procedure, shortened: (§3)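 Seeds sown in puddled paddy soil, waterlogged to 3 cm depth; next day a diluted wettable powder applied dropwise to the water surface at 1000 g active ingredient per hectare. Herbicidal effect scored 21 days after treatment in a greenhouse.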

[7] = test system: Monochoria vaginalis (Burm. f.) Presl var. plantaginea (Roxb.) Solms-Laub.; assay: as above; conditions: for Herbicidal effects index, Monochoria vaginalis (Burm. f.) Presl var. plantaginea (Roxb.) Solms-Laub.: paddy field soil treatment, 1000 g of the active ingredient per hectare, wettable powder added dropwise on water surface, 21st day after treatment; for herbicidal effect (index) on Monochoria vaginalis (Burm. f.) Presl var. plantaginea (Roxb.) Solms-Laub.: paddy field soil treatment (Test Example 1), criteria of Table 138
Procedure, shortened: as §3

[8] = test system: Echinochloa oryzicola Vasing; assay: as above; conditions: for Herbicidal effects index, Echinochloa oryzicola Vasing: paddy field soil treatment, 1000 g of the active ingredient per hectare, wettable powder added dropwise on water surface, 21st day after treatment; for herbicidal effect (index) on Echinochloa oryzicola Vasing: paddy field soil treatment (Test Example 1), criteria of Table 138
Procedure, shortened: as §3

O=C1CCCC(O)=C1C(=O)c1nc2ccccc2n(-c2cccc(OC(F)(F)F)c2)c1=O [II-101]
herbicidal effect (index) on Amaranthus viridis L. (Amaranthus viridis L. [1]): 5 | herbicidal effect (index) on Abutilon theophrasti medicus [2]: 5 | herbicidal effects on Amaranthus viridis L. (Amaranthus viridis L. [3]): 5 | herbicidal effects on Echinochloa crus-galli (L.) P. Beauv. var. crus-galli [4]: 5 | herbicidal effects on Abutilon theophrasti medicus [5]: 5 | Herbicidal effects index, Scirpus juncoides Roxb. var. ohwianus. T. Koyama [6]: 5 | Herbicidal effects index, Monochoria vaginalis (Burm. f.) Presl var. plantaginea (Roxb.) Solms-Laub. [7]: 5 | Herbicidal effects index, Echinochloa oryzicola Vasing [8]: 5

Cc1cc(-n2c(=O)c(C(=O)C3=C(O)CCCC3=O)nc3ccccc32)no1 [I-145]
herbicidal effect (index) on Amaranthus viridis L. (Amaranthus viridis L. [1]): 5 | herbicidal effect (index) on Abutilon theophrasti medicus [2]: 5 | herbicidal effect (index) on Amaranthus viridis L. (Amaranthus viridis L. [3]): 5 | herbicidal effect (index) on Echinochloa crus-galli (L.) P. Beauv. var. crus-galli [4]: 5 | herbicidal effect (index) on Abutilon theophrasti medicus [5]: 5 | Herbicidal effects index, Scirpus juncoides Roxb. var. ohwianus. T. Koyama [6]: 5 | Herbicidal effects index, Monochoria vaginalis (Burm. f.) Presl var. plantaginea (Roxb.) Solms-Laub. [7]: 5 | Herbicidal effects index, Echinochloa oryzicola Vasing [8]: 5

O=C1CCCC(O)=C1C(=O)c1nc2ccccc2n(-c2ccc3c(c2)CCC3)c1=O [II-222]
herbicidal effect (index) on Amaranthus viridis L. (Amaranthus viridis L. [1]): 5 | herbicidal effect (index) on Abutilon theophrasti medicus [2]: 5 | herbicidal effects on Amaranthus viridis L. (Amaranthus viridis L. [3]): 5 | herbicidal effects on Echinochloa crus-galli (L.) P. Beauv. var. crus-galli [4]: 5 | herbicidal effects on Abutilon theophrasti medicus [5]: 5 | Herbicidal effects index, Scirpus juncoides Roxb. var. ohwianus. T. Koyama [6]: 5 | Herbicidal effects index, Monochoria vaginalis (Burm. f.) Presl var. plantaginea (Roxb.) Solms-Laub. [7]: 5 | Herbicidal effects index, Echinochloa oryzicola Vasing [8]: 5

COCC(C)n1c(=O)c(C(=O)C2=C(O)CCCC2=O)nc2cccnc21 (stereo not drawn) [III-90]
herbicidal effect (index) on Amaranthus viridis L. (Amaranthus viridis L. [1]): 5 | herbicidal effect (index) on Abutilon theophrasti medicus [2]: 5 | herbicidal effects on Amaranthus viridis L. (Amaranthus viridis L. [3]): 5 | herbicidal effects on Echinochloa crus-galli (L.) P. Beauv. var. crus-galli [4]: 5 | herbicidal effects on Abutilon theophrasti medicus [5]: 5 | Herbicidal effects index, Scirpus juncoides Roxb. var. ohwianus. T. Koyama [6]: 5 | Herbicidal effects index, Monochoria vaginalis (Burm. f.) Presl var. plantaginea (Roxb.) Solms-Laub. [7]: 5 | Herbicidal effects index, Echinochloa oryzicola Vasing [8]: 5

O=C1CCCC(O)=C1C(=O)c1nc2cccnc2n(-c2cccc(Cl)c2)c1=O [IV-11]
herbicidal effect (index) on Amaranthus viridis L. (Amaranthus viridis L. [1]): 5 | herbicidal effect (index) on Abutilon theophrasti medicus [2]: 5 | herbicidal effects on Amaranthus viridis L. (Amaranthus viridis L. [3]): 5 | herbicidal effects on Echinochloa crus-galli (L.) P. Beauv. var. crus-galli [4]: 5 | herbicidal effects on Abutilon theophrasti medicus [5]: 5 | Herbicidal effects index, Scirpus juncoides Roxb. var. ohwianus. T. Koyama [6]: 5 | Herbicidal effects index, Monochoria vaginalis (Burm. f.) Presl var. plantaginea (Roxb.) Solms-Laub. [7]: 5 | Herbicidal effects index, Echinochloa oryzicola Vasing [8]: 5

COc1cccc(-n2c(=O)c(C(=O)C3=C(O)CCCC3=O)nc3cccnc32)c1 [IV-57]
herbicidal effect (index) on Amaranthus viridis L. (Amaranthus viridis L. [1]): 5 | herbicidal effect (index) on Abutilon theophrasti medicus [2]: 5 | herbicidal effects on Amaranthus viridis L. (Amaranthus viridis L. [3]): 5 | herbicidal effects on Echinochloa crus-galli (L.) P. Beauv. var. crus-galli [4]: 4 | herbicidal effects on Abutilon theophrasti medicus [5]: 5 | herbicidal effect (index) on Scirpus juncoides Roxb. var. ohwianus. T. Koyama [6]: 5 | herbicidal effect (index) on Monochoria vaginalis (Burm. f.) Presl var. plantaginea (Roxb.) Solms-Laub. [7]: 5 | herbicidal effect (index) on Echinochloa oryzicola Vasing [8]: 4

O=C1CCCC(O)=C1C(=O)c1nc2cccnc2n(-c2cccc(OC(F)F)c2)c1=O [IV-90]
herbicidal effect (index) on Amaranthus viridis L. (Amaranthus viridis L. [1]): 5 | herbicidal effect (index) on Abutilon theophrasti medicus [2]: 5 | herbicidal effects on Amaranthus viridis L. (Amaranthus viridis L. [3]): 5 | herbicidal effects on Echinochloa crus-galli (L.) P. Beauv. var. crus-galli [4]: 5 | herbicidal effects on Abutilon theophrasti medicus [5]: 5 | herbicidal effect (index) on Scirpus juncoides Roxb. var. ohwianus. T. Koyama [6]: 5 | herbicidal effect (index) on Monochoria vaginalis (Burm. f.) Presl var. plantaginea (Roxb.) Solms-Laub. [7]: 5 | herbicidal effect (index) on Echinochloa oryzicola Vasing [8]: 5

Cc1cccc2c1nc(C(=O)C1=C(O)CCCC1=O)c(=O)n2-c1ccccc1 [II-244]
herbicidal effect (index) on Amaranthus viridis L. (Amaranthus viridis L. [1]): 5 | herbicidal effect (index) on Abutilon theophrasti medicus [2]: 5 | herbicidal effects on Amaranthus viridis L. (Amaranthus viridis L. [3]): 5 | herbicidal effects on Echinochloa crus-galli (L.) P. Beauv. var. crus-galli [4]: 5 | herbicidal effects on Abutilon theophrasti medicus [5]: 5 | Herbicidal effects index, Scirpus juncoides Roxb. var. ohwianus. T. Koyama [6]: 5 | Herbicidal effects index, Monochoria vaginalis (Burm. f.) Presl var. plantaginea (Roxb.) Solms-Laub. [7]: 5 | Herbicidal effects index, Echinochloa oryzicola Vasing [8]: 5

O=C1CCCC(O)=C1C(=O)c1nc2ccccc2n(COCC(F)(F)F)c1=O [I-59]
herbicidal effect (index) on Amaranthus viridis L. (Amaranthus viridis L. [1]): 5 | herbicidal effect (index) on Abutilon theophrasti medicus [2]: 5 | herbicidal effect (index) on Amaranthus viridis L. (Amaranthus viridis L. [3]): 5 | herbicidal effect (index) on Echinochloa crus-galli (L.) P. Beauv. var. crus-galli [4]: 5 | herbicidal effect (index) on Abutilon theophrasti medicus [5]: 5 | Herbicidal effects index, Scirpus juncoides Roxb. var. ohwianus. T. Koyama [6]: 5 | Herbicidal effects index, Monochoria vaginalis (Burm. f.) Presl var. plantaginea (Roxb.) Solms-Laub. [7]: 5 | Herbicidal effects index, Echinochloa oryzicola Vasing [8]: 5

O=C1CCCC(O)=C1C(=O)c1cnccn1 [comparative compound A, reference compound]
herbicidal effect (index) on Amaranthus viridis L. (Amaranthus viridis L. [1]): 0 | herbicidal effect (index) on Abutilon theophrasti medicus [2]: 1 | herbicidal effects on Amaranthus viridis L. (Amaranthus viridis L. [3]): 1 | herbicidal effects on Echinochloa crus-galli (L.) P. Beauv. var. crus-galli [4]: 0 | herbicidal effects on Abutilon theophrasti medicus [5]: 2 | herbicidal effect (index) on Scirpus juncoides Roxb. var. ohwianus. T. Koyama [6]: 0 | herbicidal effect (index) on Monochoria vaginalis (Burm. f.) Presl var. plantaginea (Roxb.) Solms-Laub. [7]: 0 | herbicidal effect (index) on Echinochloa oryzicola Vasing [8]: 2

COc1ccc(-n2c(=O)c(C(=O)C3=C(O)CCCC3=O)nc3ccccc32)c(OC)c1OC [II-218]
herbicidal effect (index) on Amaranthus viridis L. (Amaranthus viridis L. [1]): 5 | herbicidal effect (index) on Abutilon theophrasti medicus [2]: 5 | herbicidal effects on Amaranthus viridis L. (Amaranthus viridis L. [3]): 5 | herbicidal effects on Echinochloa crus-galli (L.) P. Beauv. var. crus-galli [4]: 4 | herbicidal effects on Abutilon theophrasti medicus [5]: 5 | Herbicidal effects index, Scirpus juncoides Roxb. var. ohwianus. T. Koyama [6]: 5 | Herbicidal effects index, Monochoria vaginalis (Burm. f.) Presl var. plantaginea (Roxb.) Solms-Laub. [7]: 5 | Herbicidal effects index, Echinochloa oryzicola Vasing [8]: 4

C=CCn1c(=O)c(C(=O)C2=C(O)CCCC2=O)nc2ccccc21 [Compound I-30]
herbicidal effect (index) on Amaranthus viridis L. (Amaranthus viridis L. [1]): 5 | herbicidal effect (index) on Abutilon theophrasti medicus [2]: 5 | herbicidal effect (index) on Amaranthus viridis L. (Amaranthus viridis L. [3]): 5 | herbicidal effect (index) on Echinochloa crus-galli (L.) P. Beauv. var. crus-galli [4]: 4 | herbicidal effect (index) on Abutilon theophrasti medicus [5]: 5 | Herbicidal effects index, Scirpus juncoides Roxb. var. ohwianus. T. Koyama [6]: 5 | Herbicidal effects index, Monochoria vaginalis (Burm. f.) Presl var. plantaginea (Roxb.) Solms-Laub. [7]: 5 | Herbicidal effects index, Echinochloa oryzicola Vasing [8]: 5

O=C1CCCC(O)=C1C(=O)c1nc2cccnc2n(-c2ccc(Cl)cc2)c1=O [IV-13]
herbicidal effect (index) on Amaranthus viridis L. (Amaranthus viridis L. [1]): 5 | herbicidal effect (index) on Abutilon theophrasti medicus [2]: 5 | herbicidal effects on Amaranthus viridis L. (Amaranthus viridis L. [3]): 5 | herbicidal effects on Echinochloa crus-galli (L.) P. Beauv. var. crus-galli [4]: 5 | herbicidal effects on Abutilon theophrasti medicus [5]: 5 | Herbicidal effects index, Scirpus juncoides Roxb. var. ohwianus. T. Koyama [6]: 5 | Herbicidal effects index, Monochoria vaginalis (Burm. f.) Presl var. plantaginea (Roxb.) Solms-Laub. [7]: 5 | Herbicidal effects index, Echinochloa oryzicola Vasing [8]: 5

O=C1CCCC(O)=C1C(=O)c1nc2ccccc2n(CC2CCCO2)c1=O (stereo not drawn) [I-211]
herbicidal effect (index) on Amaranthus viridis L. (Amaranthus viridis L. [1]): 5 | herbicidal effect (index) on Abutilon theophrasti medicus [2]: 5 | herbicidal effect (index) on Amaranthus viridis L. (Amaranthus viridis L. [3]): 5 | herbicidal effect (index) on Echinochloa crus-galli (L.) P. Beauv. var. crus-galli [4]: 5 | herbicidal effect (index) on Abutilon theophrasti medicus [5]: 5 | Herbicidal effects index, Scirpus juncoides Roxb. var. ohwianus. T. Koyama [6]: 5 | Herbicidal effects index, Monochoria vaginalis (Burm. f.) Presl var. plantaginea (Roxb.) Solms-Laub. [7]: 5 | Herbicidal effects index, Echinochloa oryzicola Vasing [8]: 4

O=C1CCCC(O)=C1C(=O)c1nc2ccccc2n(-c2ccc([N+](=O)[O-])cc2)c1=O [II-131]
herbicidal effect (index) on Amaranthus viridis L. (Amaranthus viridis L. [1]): 5 | herbicidal effect (index) on Abutilon theophrasti medicus [2]: 5 | herbicidal effects on Amaranthus viridis L. (Amaranthus viridis L. [3]): 5 | herbicidal effects on Echinochloa crus-galli (L.) P. Beauv. var. crus-galli [4]: 5 | herbicidal effects on Abutilon theophrasti medicus [5]: 5 | Herbicidal effects index, Scirpus juncoides Roxb. var. ohwianus. T. Koyama [6]: 5 | Herbicidal effects index, Monochoria vaginalis (Burm. f.) Presl var. plantaginea (Roxb.) Solms-Laub. [7]: 5 | Herbicidal effects index, Echinochloa oryzicola Vasing [8]: 5

From patent publication US8389523B2, “Substituted quinoxaline and an agrochemical composition thereof” (Kumiai Chemical Industry Co., Ltd., priority 2007, dated 2013)
